Laboratory results as given in patent US20090253709A1 (NATIONAL DEFENSE MEDICAL CENTER, priority 2008, published 2009).

Tests used:
hTERT expression [1] = assay: SEAP assay, H1299/PhTERT-driven SEAP system; assay type: cell-based, human; conditions: Homo sapiens
Description: The condition of the cells for selecting the telomerase inhibitor must be the cancer cells with telomerase activity. H1299 is a non-small cell lung cancer cell line with telomerase activity. The hTERT communication gene linked behind PhTERT which is located at the fifth chromosome of H1299 cell can be expressed; however, this expression is hard to detect. Therefore, the plasmid having the SEAP communication gene linked behind PhTERT was transfected into H1299 cells. Under the identical condition, after PhTERT was activated, the SEAP communication gene linked behind the plasmid was also activated. This gene could be detected by this analytic method while expressing.
If additionally added reagent can inhibit PhTERT, the linked SEAP communication gene will not be expressed, and the hTERT communication gene linked behind PhTERT at the fifth chromosome will not be expressed. […]
(§1) The cellular medium after the cellular incubation was transferred into the eppondorf tube, and the activity of endogeneous alkaline phosphatase was inactivated at 65° C. for 10 minutes. After centrification, the mixture was obtained by mixing 50 μl of the supernatant with the equal volume of the SEAP buffer. The mixture and the substrate (120 mM of p-nitrophenylphosphate) were preheated at 37° C. for 10 minutes respectively, and the mixture and the substrate were mixed at a ratio of 1:10 and reacted at 37° C. The absorbance of visible light at 405 nm was determined at the appropriate time intervals, and the enzymatic activity of SEAP was represented by the speed of the increasing absorbance at 405 nm.
The selection of telomerase inhibitors of the anthraquinone compounds provided in the present invention was performed by the H1299/PhTERT-driven SEAP system. SEAP is the communication gene in this drug selection model. The SEAP inhibition was shown as follows. The quantitative cellular medium obtained after the 24-hour drug-treatment and the identical inactivation was reacted with the quantitative SEAP substrate, and the absorbance at 405 nm was detected for 5 time intervals. Subsequently, the linear slope of absorbance to the measuring time was calculated, and the variance of absorbance at 405 nm per minute was represented and compared with the SEAP-producing result of drug-untreated H1299 cells. In addition, the influence of the cell-treated drug solution to the cellular proliferation and the drug toxicity to the cells were considered, and the cellular growth was evaluated by the MTT assay. The drug-treated cells were analyzed by the SEAP assay and the data analysis of MTT assay at the same time. Both results were compared so as to delete the influence of cell number or the activity to SEAP, and the dose-dependent phenomenon could be anticipated in the range of drug concentration designed by the laboratory.
In the preliminary selection, the highest concentration was 1000 μM, and 10-fold serial dilutions were done. Therefore, the final concentrations for treating cells were 1 μM, 10 μM and 100 μM, and the drug concentrations were repeated for 5 times. Since the chemically-synthetic drugs have colors thereon, the SEAP value of drug-treatment without cells was also determined to be the background value which was deducted while treating with the drugs. The candidate drug for inhibiting telomerase on the hTERT gene expression level was evaluated and anticipated.

hTERT expression [2] = assay: SEAP assay in hTERT-BJ1-PTERT(3.4)-SEAP cells; assay type: cell-based; conditions: Homo sapiens, read-out: SEAP (Inhibition μM ± SD)
Procedure: A total of 2×10^3 hTERT-BJ1-PTERT(3.4)-SEAP cells were seeded in the 96-well cell culture plate, and incubated with DMEM (GIBCO®)/glucose mixture and Medium 199 (GIBCO®)/10% FBS/1 mM sodium pyruvate (GIBCO®)/4 mM L-glutamine (GIBCO®) mixture at a ratio of 4:1 at 37° C. for 24 hours. When the cells were attached in the bottom of the well, the seriously-diluted compounds with different concentrations ([…]) were treated with the cells for 48 hours, and the PTERT(3.4)-SEAP cells without drug treatment were being the control. After 48 hours of drug treatment, the cultured medium were collected for performing the analysis of SEAP activity. The cells were washed with 1×PBS once immediately, and the MTT assay was performed to compare the compounds with the relative toxicity or the influence to the proliferation and activity.
as §1

[3] = NCI-H1299, H1299, compound concentration 1 μM, read-out: SEAP (Inhibition μM ± SD)
[4] = NCI-H1299, H1299, compound concentration 10 μM, read-out: SEAP (Inhibition μM ± SD)
[5] = NCI-H1299, H1299, compound concentration 100 μM, read-out: SEAP (Inhibition μM ± SD)
[6] = BJ1, compound concentration 1 μM
[7] = BJ1, compound concentration 10 μM
[8] = BJ1, compound concentration 100 μM
[9] = NCI-H1299, read-out: SEAP (Inhibition μM ± SD)

| SMILES | melting point [°C] | activity at 1 µM (hTERT expression [1]; [3]) [%] | activity at 10 µM (hTERT expression [1]; [4]) [%] | activity at 100 µM (hTERT expression [1]; [5]) [%] | activity at 1 µM (hTERT expression [2]; [6]) [%] | activity at 10 µM (hTERT expression [2]; [7]) [%] | activity at 100 µM (hTERT expression [2]; [8]) [%] | activity at 1 µM (hTERT expression [1]; [9]) [%] | activity at 10 µM (hTERT expression [1]; [9]) [%] | activity at 100 µM (hTERT expression [1]; [9]) [%] | activity at 10 µM (hTERT expression [2]) [%] | activity at 100 µM (hTERT expression [2]) [%] | activity at 1 µM (hTERT expression [2]) [%] |
| --- | --- | --- | --- | --- | --- | --- | --- | --- | --- | --- | --- | --- | --- |
| O=C1c2ccc([N+](=O)[O-])cc2C(=O)c2cc([N+](=O)[O-])ccc21 [Compound 1, 2,7-dinitroanthraquinone] | 284 | 87 ± 13 | 85 ± 21 | 62 ± 8 | 55 ± 21 | 60 ± 35 | 65 ± 23 |  |  |  |  |  |  |
| O=C(CCl)Nc1ccc2c(c1)C(=O)c1cc(NC(=O)CCl)ccc1C2=O [Compound 3, 2,7-bis(chloroacetamido)anthraquinone] | 286 |  |  |  |  |  |  | 72 ± 3 | 40 ± 1 | 36 ± 1 | 69 ± 34 | 135 ± 21 |  |
| CN(C)CC(=O)Nc1ccc2c(c1)C(=O)c1cc(NC(=O)CN(C)C)ccc1C2=O [Compound 8, 2,7-Bis[2-(dimethylamino)acetamido]anthraquinone] |  |  |  |  |  |  |  | 87 ± 12 | 40 ± 20 | 21 ± 14 | 44 ± 5 | 3 ± 13 | 96 ± 1 |
| CCNCC(=O)Nc1ccc2c(c1)C(=O)c1cc(NC(=O)CNCC)ccc1C2=O [Compound 10, 2,7-Bis[2-(ethylamino)acetamido]anthraquinone] | 145 |  |  |  |  |  |  | 60 ± 10 | 35 ± 5 | 34 ± 3 | 41 ± 4 | 17 ± 21 | 90 ± 5 |
| CC(C)NCC(=O)Nc1ccc2c(c1)C(=O)c1cc(NC(=O)CNC(C)C)ccc1C2=O [Compound 13, 2,7-Bis[2-(isopropylamino)acetamido]anthraquinone] | 158 |  |  |  |  |  |  | 73 ± 31 | 28 ± 18 | 21 ± 16 | 55 ± 19 | 45 ± 11 | 79 ± 14 |
| CCN(CC)CCC(=O)Nc1ccc2c(c1)C(=O)c1cc(NC(=O)CCN(CC)CC)ccc1C2=O [Compound 16, 2,7-Bis[3-(diethylamino)propionamido]anthraquinone] |  | 76 ± 19 | 35 ± 17 | 26 ± 11 | 84 ± 5 | 49 ± 3 | 37 ± 5 |  |  |  |  |  |  |
| O=C(CCN1CCCC1)Nc1ccc2c(c1)C(=O)c1cc(NC(=O)CCN3CCCC3)ccc1C2=O [Compound 18, 2,7-Bis[3-(pyrrolidino)propionamido]anthraquinone] |  | 73 ± 11 | 29 ± 15 | 17 ± 13 |  | 67 ± 16 | 109 ± 18 |  |  |  |  |  |  |
| CCCNCCC(=O)Nc1ccc2c(c1)C(=O)c1cc(NC(=O)CCNCCC)ccc1C2=O [Compound 21, 2,7-Bis[3-(propylamino)propionamido]anthraquinone] |  | 52 ± 13 | 22 ± 14 | 13 ± 15 |  | 133 ± 48 | 217 ± 40 |  |  |  |  |  |  |
| CCCC(=O)Nc1ccc2c(c1)C(=O)c1cc(NC(=O)CCC)ccc1C2=O [Compound 28, 2,7-Bis(butyramido)anthraquinone] | 275 |  |  |  |  |  |  | 90 ± 8 | 83 ± 6 | 83 ± 4 |  |  |  |
| O=C1c2ccc(NC(=O)C3CC3)cc2C(=O)c2cc(NC(=O)C3CC3)ccc21 [Compound 32, 2,7-Bis(cyclopropanecarbonamido)anthraquinone] | 352 | 80 ± 1 | 81 ± 1 | 81 ± 1 |  |  |  |  |  |  |  |  |  |

Continued, in another order:

| melting point [°C] | SMILES | activity at 1 µM (hTERT expression [1]; [3]) [%] | activity at 10 µM (hTERT expression [1]; [4]) [%] | activity at 100 µM (hTERT expression [1]; [5]) [%] | activity at 1 µM (hTERT expression [2]; [6]) [%] | activity at 10 µM (hTERT expression [2]; [7]) [%] | activity at 100 µM (hTERT expression [2]; [8]) [%] | activity at 1 µM (hTERT expression [1]; [9]) [%] | activity at 10 µM (hTERT expression [1]; [9]) [%] | activity at 100 µM (hTERT expression [1]; [9]) [%] | activity at 10 µM (hTERT expression [2]) [%] | activity at 100 µM (hTERT expression [2]) [%] | activity at 1 µM (hTERT expression [2]) [%] |
| --- | --- | --- | --- | --- | --- | --- | --- | --- | --- | --- | --- | --- | --- |
| 342 | Nc1ccc2c(c1)C(=O)c1cc(N)ccc1C2=O [Compound 2, 2,7-Diaminoanthraquinone] | 87 ± 10 | 75 ± 8 | 63 ± 12 |  |  |  |  |  |  |  |  |  |
| 241 | CCN(CC)CC(=O)Nc1ccc2c(c1)C(=O)c1cc(NC(=O)CN(CC)CC)ccc1C2=O [Compound 4, 2,7-Bis[2-(diethylamino)acetamido]anthraquinone] | 90 ± 3 | 61 ± 11 | 37 ± 10 | 26 ± 4 | 131 ± 57 | 116 ± 34 |  |  |  |  |  |  |
| 125 | CCCCNCC(=O)Nc1ccc2c(c1)C(=O)c1cc(NC(=O)CNCCCC)ccc1C2=O [Compound 5, 2,7-Bis[2-(butylamino)acetamido]anthraquinone] | 77 ± 18 | 26 ± 17 | 20 ± 13 | 27 ± 18 | 24 ± 24 | 80 ± 14 |  |  |  |  |  |  |
| 201 | O=C(CN1CCCC1)Nc1ccc2c(c1)C(=O)c1cc(NC(=O)CN3CCCC3)ccc1C2=O [Compound 6, 2,7-Bis[2-(pyrrolidino)acetamido]anthraquinone] | 88 ± 10 | 48 ± 13 | 30 ± 10 |  |  |  |  |  |  |  |  |  |
| 243 | O=C(CN1CCCCC1)Nc1ccc2c(c1)C(=O)c1cc(NC(=O)CN3CCCCC3)ccc1C2=O [Compound 7, 2,7-Bis[2-(piperidino)acetamido]anthraquinone] | 74 ± 19 | 69 ± 20 | 63 ± 15 | 118 ± 16 | 121 ± 3 | 103 ± 5 |  |  |  |  |  |  |
| 143 | CCCNCC(=O)Nc1ccc2c(c1)C(=O)c1cc(NC(=O)CNCCC)ccc1C2=O [Compound 9, 2,7-Bis[2-(propylamino)acetamido]anthraquinone] | 73 ± 17 | 44 ± 16 | 24 ± 10 |  |  |  |  |  |  |  |  |  |
| 173 | CN1CCN(CC(=O)Nc2ccc3c(c2)C(=O)c2cc(NC(=O)CN4CCN(C)CC4)ccc2C3=O)CC1 [Compound 11, 2,7-Bis[2-(N-methylpiperazino)acetamido]anthraquinone] | 76 ± 21 | 50 ± 11 | 23 ± 9 | 61 ± 21 | 68 ± 21 | 97 ± 30 |  |  |  |  |  |  |
| 173 | O=C(CN1CCNCC1)Nc1ccc2c(c1)C(=O)c1cc(NC(=O)CN3CCNCC3)ccc1C2=O [Compound 12, 2,7-Bis[2-(piperazino)acetamido]anthraquinone] | 89 ± 17 | 72 ± 20 | 60 ± 12 |  |  |  |  |  |  |  |  |  |
| 146 | CC(C)CNCC(=O)Nc1ccc2c(c1)C(=O)c1cc(NC(=O)CNCC(C)C)ccc1C2=O [Compound 14, 2,7-Bis[2-(isobutylamino)acetamido]anthraquinone] | 73 ± 20 | 38 ± 15 | 26 ± 10 | 83 ± 5 | 44 ± 2 | 40 ± 3 |  |  |  |  |  |  |
| 281 | O=C(CCCl)Nc1ccc2c(c1)C(=O)c1cc(NC(=O)CCCl)ccc1C2=O [Compound 15, 2,7-Bis(3-chloropropionamido)anthraquinone] | 94 ± 11 | 94 ± 7 | 87 ± 9 |  |  |  |  |  |  |  |  |  |
